For eleven molecules, GI50 and TGI results are on record in PubChem BioAssay (NCI).

SMILES strings stand for the structures.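 Assay format: 96-well plates, 48-hour exposure. At the GI50, growth is halved. TGI: total growth inhibition.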

Assay in all cases: NCI-60 cell line screen, 48 h
The subject of assay [1] is LOX IMVI melanoma.
Assay [2] concerns MCF7 breast.
In assay [3] the test system is SK-OV-3 ovarian.
Assay [4] has as its system M14 melanoma.
In assay [5] the test system is A549 NSCLC.
For assay [6], the system named is UACC-257 melanoma.
Assay [7] has as its system OVCAR-4 ovarian.
The test system of assay [8] is HT29 colon.
In assay [9] the test system is PC-3 prostate.
Assay [10] deals with SN12C renal.

On to `COc1ccccc1CNCCCN1C(=O)c2ccc3c4c(ccc(c24)C1=O)C(=O)N(CCCNCCCCN)C3=O`, for which the GI50 in assay [1] was 0.202 µM; in [2], 0.202 µM; in assay [3], 0.495 µM; in [4], 0.355 µM; in [5], 0.29 µM; in assay [6], 0.166 µM. The GI50 in assay [7] is 0.165 µM; in [8], 0.206 µM; in assay [9], 0.307 µM. Also, the TGI turned out to be 0.557 µM in [1]; 0.555 µM in assay [2]; 2.86 µM in assay [3]; 1.15 µM in assay [4]; 1.06 µM in assay [5]; 0.317 µM in assay [6]. Besides, the TGI in [7] was 0.319 µM; in assay [8], 0.695 µM; in [9] it was 2.35 µM.

As to `CC(=O)Nc1ccc2c(c1)[nH]c(=O)c1cc(Cl)ccc12`, the TGI was more than 100 µM in [1]; 77.7 µM in [2]; more than 100 µM in assay [3]; more than 100 µM in [4]; more than 100 µM in assay [5]; more than 100 µM in assay [10]. For the same molecule, the TGI in [6] is 59.5 µM; in [7], more than 100 µM; in [8], 41.5 µM.

For the molecule `CC1(C)N=C(N)N=C(N)N1c1ccc(CCCCCCc2ccc(S(=O)(=O)F)cc2)cc1`, the TGI was more than 20.9 µM in assay [1]; more than 32.3 µM in assay [2]; 23.3 µM in assay [3]; 28.7 µM in [4]; 2.76 µM in assay [5]; 7.02 µM in [10]. Moreover, the TGI is more than 100 µM in assay [7], 17.1 µM in assay [8] and 15.4 µM in assay [9].

With `O=C(Nc1ccc(-n2cc(-c3ccncc3)c(-c3ccc(Cl)c(O)c3)n2)cc1)c1ccc(Cl)c(Cl)c1`, the GI50 is 4.63 µM in assay [2]; 2.08 µM in assay [3]; 2.35 µM in [4]; 6.71 µM in assay [5]; 5.7 µM in assay [10]; 4.74 µM in assay [6]. The GI50 in [7] was more than 100 µM; in [8], 2.6 µM; in assay [9], 4.18 µM. In addition, the TGI in assay [2] was more than 100 µM; in assay [3], more than 100 µM; in assay [4] it was 7.56 µM; in assay [5], more than 100 µM; in [10], more than 100 µM; in assay [6], more than 100 µM. Besides, the TGI in assay [7], in [8] and in assay [9] was more than 100 µM each time.

In the case of `COc1cc(COC(=O)N(C)[C@@H](Cc2ccccc2)C(=O)O)c([N+](=O)[O-])cc1OC`, the TGI in assay [2], in assay [3], in assay [4], in assay [5], in [10] and in [6] was more than 100 µM throughout. For the same molecule, the TGI in assay [8] and in assay [9] was more than 100 µM in each case.

As for `OCCN1CCCN(CCCN2c3ccccc3Sc3ccc(C(F)(F)F)cc32)CC1`, the GI50 is 1.73 µM in assay [1]; 1.6 µM in assay [2]; 5.29 µM in [3]; 1.97 µM in assay [4]; 4.69 µM in [5]; 4.5 µM in [10]. Further, the results for the GI50 in assay [6], in assay [7] and in assay [8] were 1.94 µM, 3.11 µM and 1.76 µM, respectively. In addition, the TGI in [1] was 3.21 µM; in assay [2], 3.14 µM; in assay [3], 18.4 µM; in assay [4], 3.9 µM; in assay [5] it was 15.6 µM; in [10], 18.5 µM. Further, the TGI worked out at 3.65 µM in assay [6], 13.4 µM in [7] and 3.75 µM in [8].

With `CC[C@]1(O)C[C@@H]2CN(CCc3c([nH]c4ccccc34)[C@@](C(=O)OC)(c3cc4c(cc3OC)N(C)[C@H]3[C@@](O)(C(=O)OC)[C@H](OC(=O)CCCBr)[C@]5(CC)C=CCN6CC[C@]43[C@@H]65)C2)C1`, the GI50 in [2] is less than 0.01 µM; in [3] it was 0.306 µM; in [4], 0.0543 µM; in [5], less than 0.0166 µM; in [10] it was 0.046 µM; in assay [6] it was 3.27 µM. Moreover, the GI50 in [8] was less than 0.01 µM; in [9], 0.0141 µM. Moreover, the TGI was more than 100 µM in assay [2]; more than 22.2 µM in [3]; 25.9 µM in assay [4]; more than 100 µM in assay [5]; more than 100 µM in assay [10]; more than 100 µM in assay [6]. Also, the TGI in assay [7] is 33.5 µM; in assay [8] it was more than 100 µM; in assay [9], 14.3 µM.

As to `Cc1cn([C@H]2CN(O)C[C@@H](CO)O2)c(=O)[nH]c1=O`, the TGI in [2], in [3], in assay [4], in assay [5], in assay [10] and in assay [6] was more than 100 µM each time. Also, the TGI in [7] and in assay [9] was more than 100 µM each time.

As to `COc1cc(C(=O)Nc2ccc(-c3nc4ccccc4[nH]3)cc2)cc(OC)c1OC`, the GI50 is 11.2 µM in assay [1]; 11.2 µM in assay [2]; 16.5 µM in assay [3]; 11.2 µM in [5]; 10.3 µM in assay [10]; 17.8 µM in assay [6]. The GI50 in assay [7] was 11.8 µM; in [8], 5.95 µM; in assay [9], 13.6 µM. The TGI is 30.9 µM in assay [1]; 30.6 µM in [2]; 30.6 µM in assay [3]; 27.8 µM in assay [5]; 25.5 µM in assay [10]; 38.9 µM in assay [6]. In addition, the TGI in assay [7] was determined as 36.9 µM; in assay [8] it was 19.6 µM; in assay [9], 34 µM.

Turning to `N#CC(C#N)=C/C=C/c1ccccc1[N+](=O)[O-]`, the TGI in assay [1] was 7.09 µM; in assay [2], more than 10 µM; in assay [3], more than 10 µM; in assay [5], more than 10 µM; in assay [10] it was more than 10 µM; in assay [6], more than 10 µM. The TGI in assay [7], in assay [8] and in [9] was more than 10 µM throughout.

On to `CC(=O)OCCc1cc2ccccc2oc1=O`, for which the TGI in [1], in assay [2], in assay [4], in assay [5], in assay [10] and in assay [6] was more than 100 µM in each case. The TGI in assay [7], in [8] and in assay [9] was more than 100 µM in each case.
